Common to all, as to format: cell-based
Test [1] concerns the target T1, human EDG1 (S1PR1) receptor (Homo sapiens, UniProt P21453).
T1 construct: expressed in transfected cells; host or cells: CHO-A21-Edg1#17 (CHO clone co-expressing mitochondrial aequorin and chimaeric Gaqi5)
The test is described as follows: Aequorin assay, agonist potency, CHO-A21-Edg1#17 cells. The settings on record: agonist mode, aequorin luminescence; read-out: S1P1 EC50. On the procedure:
(§1) Agonistic activity was measured as described below.
(§2) Cell clone CHO-A21-Edg1#17 carries the transgenes human EDG1 (S1PR1) receptor (Accession number NP_001391.2), mitochondrially targeted Aequorin (active part corresponds to accession number 1SL8_A) and chimaeric Gaqi5=Gaq modified with the 5 C-terminal amino-acids replaced with those of the Gai protein (DCGLF). CHO-A2-S1P3 Mix is a cell pool ectopically expressing human EDG3 (S1PR3) receptor (Accession number NP_005217.2) mitochondrially targeted Aequorin (active part has a sequence similar to accession number AY601106.1) and GNA16 (Accession number NP_002059.3). Cell clone CHO-A21-EDG8#12 carries the transgenes human EDG8 (S1PR5) receptor (Acession number NP_110387.1), mitochondrially expressed Aequorin (active part corresponds to accession number 1SL8_A) and chimaeric Gaqi5 (Gaq modified to present the 5 last amino-acids of the Gai protein “DCGLF”; see above). Cells are grown to mid-log phase in culture medium (HAM's F12, 10% FBS, 100 IU/mL penicillin, 100 μg/mL streptomycin, 250 μg/mL Zeocin, 400 μg/mL G418). 18 hours prior to frozen cells preparation, the medium is changed to remove the antibiotics.
(§3) 18 hours prior to the test, vials of frozen cells are quickly thawed in a 37° C. water bath, cells are recovered by centrifugation and resuspended in assay buffer (DMEM/HAM's F12 with HEPES, without phenol red+0.1% fatty acid-free BSA). Cells are gently agitated in suspension overnight at RT in presence of 5 μM of Coelenterazine h (Molecular Probes). On the day of the test, cells are diluted to their final working concentrations in assay buffer and agitated in suspension for 1 h at RT. Cells are then placed in the luminescence reader (Hamamatsu Functional Drug Screening System 6000, FDSS6000). During cells incubation, compounds are prepared in 100% DMSO, and subsequently diluted in assay buffer. Compounds are then dispensed in the assay plate (black, clear-bottom, 384-well plate). After binding of agonists to the human S1P receptor the intracellular calcium concentration increases and binding of calcium to the Aequorin/Coelenterazine complex leads to an oxidation reaction of coelenterazine, which results in the production of Aequorin, coelenteramide, CO2 and light (Dmax 469 nm). The luminescent response is dependent on the agonist concentration. For agonist testing, 30 μL of cell suspension are injected on 30 μL of test compound or reference agonist in the assay plate. The resulting emission of light is recorded for 90 seconds using the FDSS6000. Dose response curves with the reference compounds are performed before testing the compounds. S1P is the reference agonist and JTE-013 the reference antagonist for S1P2.
(§4) Luminescence data are integrated over the reading interval for agonist and antagonist modes. To standardize the emission of recorded light (determination of the “100% signal”) across plates and across different experiments, some of the wells contain 100 μM digitonin or a saturating concentration of ATP (20 μM). Plates also contain the reference agonist at a concentration equivalent to the EC80 obtained during the test validation and the EC100. Dose-response data from test compounds were analyzed with XLfit (IDBS) software using nonlinear regression applied to a sigmoidal dose-response model and the following equation: […]

Test [2] addresses T2, human EDG8 (S1PR5) receptor (Homo sapiens, UniProt Q9H228).
T2 construct: carries the transgenes human EDG8 (S1PR5) receptor (Acession number NP_110387.1); expressed in transfected cells; host or cells: CHO-A21-EDG8#12 (CHO clone co-expressing mitochondrial aequorin and chimaeric Gaqi5)
The test is described as follows: Aequorin assay, agonist potency, CHO-A21-EDG8#12 cells. The settings on record: agonist mode, aequorin luminescence; read-out: S1P5 EC50 range #. The method, then:
as §1, §2, §3, §4

The target of another test is T3, S1P4 (Homo sapiens, UniProt O95977).
T3 sequence (O95977 1-384): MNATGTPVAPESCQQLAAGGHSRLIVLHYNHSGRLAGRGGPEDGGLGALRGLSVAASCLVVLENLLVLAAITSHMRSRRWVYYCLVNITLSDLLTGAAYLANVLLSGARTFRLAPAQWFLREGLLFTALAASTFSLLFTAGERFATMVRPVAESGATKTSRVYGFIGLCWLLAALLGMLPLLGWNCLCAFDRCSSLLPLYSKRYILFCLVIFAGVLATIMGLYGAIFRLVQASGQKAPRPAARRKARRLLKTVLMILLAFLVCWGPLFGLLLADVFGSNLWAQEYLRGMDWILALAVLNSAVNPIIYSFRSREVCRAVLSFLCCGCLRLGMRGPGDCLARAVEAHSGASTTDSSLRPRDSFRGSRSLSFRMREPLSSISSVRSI
The test is described as follows: Aequorin assay, agonist potency, S1P4. The settings on record: agonist mode, aequorin luminescence. The method, then:
as §1, §3, §4

The results in this text go back to patent publication US20200055817A1 (AbbVie Deutschland GmbH & Co. KG, priority 2016, published 2020).

T1 sequence (P21453 whole entry): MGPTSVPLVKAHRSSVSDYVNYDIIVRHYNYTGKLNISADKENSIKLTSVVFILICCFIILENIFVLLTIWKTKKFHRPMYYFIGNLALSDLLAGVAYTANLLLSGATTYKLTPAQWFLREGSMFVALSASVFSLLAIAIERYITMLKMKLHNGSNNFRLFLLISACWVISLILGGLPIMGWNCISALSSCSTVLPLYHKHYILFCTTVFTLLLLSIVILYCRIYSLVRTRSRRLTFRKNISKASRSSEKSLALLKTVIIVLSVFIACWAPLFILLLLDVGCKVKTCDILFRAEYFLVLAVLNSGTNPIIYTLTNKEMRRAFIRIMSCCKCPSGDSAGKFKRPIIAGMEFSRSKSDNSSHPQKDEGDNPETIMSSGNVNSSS
T2 sequence (Q9H228 whole entry): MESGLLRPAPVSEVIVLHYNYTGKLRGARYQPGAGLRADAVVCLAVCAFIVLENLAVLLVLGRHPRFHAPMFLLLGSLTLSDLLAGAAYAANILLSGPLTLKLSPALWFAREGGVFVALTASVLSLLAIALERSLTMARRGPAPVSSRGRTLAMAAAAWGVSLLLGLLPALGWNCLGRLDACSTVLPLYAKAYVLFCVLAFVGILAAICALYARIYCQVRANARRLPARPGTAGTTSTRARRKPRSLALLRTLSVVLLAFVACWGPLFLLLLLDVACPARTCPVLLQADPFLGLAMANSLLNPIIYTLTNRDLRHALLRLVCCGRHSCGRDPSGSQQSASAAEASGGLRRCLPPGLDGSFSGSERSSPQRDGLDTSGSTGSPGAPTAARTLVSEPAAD

On to `CCOc1ccc(C#Cc2ccc3c(c2)OC2(C3)CN(CC(=O)O)C2)cc1` [Example 154, 2-(6′-((4-ethoxyphenyl)ethynyl)-3′H-spiro[azetidine-3,2′-benzofuran]-1-yl)acetic acid], for which the EC50 in test [1] was less than 1 µM; in test [2], 0.01 to 0.1 µM; on S1P4, greater than 1 µM.
For `O=C(O)C1(CN2CC3(Cc4ccc(OCCc5ccc(Cl)cc5)cc4C3)C2)CC1` [Example 55, 1-((5′-(4-chlorophenethoxy)-1′,3′-dihydrospiro[azetidine-3,2′-inden]-1-yl)methyl)cyclopropanecarboxylic acid] the same measures were greater than 1 µM, 1 to 10 µM and less than 1 µM.
The corresponding values for `CCOc1cc(F)c(COc2ccc3c(c2)CC2(C3)CN(C3CC(C(=O)O)C3)C2)c(F)c1` (stereo not drawn) [Example 85, 3-(5′-((4-ethoxy-2,6-difluorobenzyl)oxy)-1′,3′-dihydrospiro[azetidine-3,2′-inden]-1-yl)cyclobutanecarboxylic acid] are greater than 1 µM, 1 to 10 µM and less than 1 µM.
Take `CC1CCC(C#Cc2ccc3c(c2)OC2(C3)CN(CC(=O)O)C2)CC1` (stereo not drawn) [Example 155, 2-(6′-((4-methylcyclohexyl)ethynyl)-3′H-spiro[azetidine-3,2′-benzofuran]-1-yl)acetic acid]: the figures for the 50% effective concentration (EC50) (in test [1]; in test [2]; at S1P4) were greater than 1 µM, 0.1 to 1 µM and less than 1 µM, respectively.
The corresponding values for `O=C(O)C1(CN2CC3(Cc4ccc(OCc5ccccc5Cl)cc4C3)C2)CC1` [Example 141, 1-((5′-((2-chlorobenzyl)oxy)-1′,3′-dihydrospiro[azetidine-3,2′-inden]-1-yl)methyl)cyclopropanecarboxylic acid] are greater than 1 µM, 1 to 10 µM and less than 1 µM.
The corresponding values for `O=C(O)CN1CC2(Cc3ccc(OC4CCc5cc(Br)cc(F)c54)cc3C2)C1` (stereo not drawn) [Example 68, 2-(5′-((5-bromo-7-fluoro-2,3-dihydro-1H-inden-1-yl)oxy)-1′,3′-dihydrospiro[azetidine-3,2′-inden]-1-yl)acetic acid] are greater than 1 µM, no more than 0.01 µM and less than 1 µM.
For `O=C(O)C1(CN2CC3(Cc4ccc(OCc5ccccc5C(F)(F)F)cc4C3)C2)CC1` [Example 41, 1-((5′-((2-(trifluoromethyl)benzyl)oxy)-1′,3′-dihydrospiro[azetidine-3,2′-inden]-1-yl)methyl)cyclopropanecarboxylic acid compound with 2,2,2-trifluoroacetic acid (1:1)] the same measures were greater than 1 µM, 1 to 10 µM and less than 1 µM.
`CC(C)Oc1ccc(C#Cc2ccc3c(c2)CC2(C3)CN(CC(=O)O)C2)cn1` [Example 75, 2-(5′-((6-isopropoxypyridin-3-yl)ethynyl)-1′,3′-dihydrospiro[azetidine-3,2′-inden]-1-yl)acetic acid]: the values for the EC50 (in test [1]; in test [2]; on S1P4) were less than 1 µM, no more than 0.01 µM and greater than 1 µM, respectively.
The corresponding values for `O=C(O)CN1CC2(Cc3ccc(OC4CCc5cccc(Cl)c54)cc3C2)C1` (stereo not drawn) [Example 67, 2-(5′-((7-chloro-2,3-dihydro-1H-inden-1-yl)oxy)-1′,3′-dihydrospiro[azetidine-3,2′-inden]-1-yl)acetic acid] are greater than 1 µM, no more than 0.01 µM and less than 1 µM.
The corresponding values for `O=C(O)C1(CN2CC3(Cc4ccc(OCc5ccc6c(c5)OCO6)cc4C3)C2)CC1` [Example 143, 1-((5′-(benzo[d][1,3]dioxol-5-ylmethoxy)-1′,3′-dihydrospiro[azetidine-3,2′-inden]-1-yl)methyl)cyclopropanecarboxylic acid] are greater than 1 µM, 1 to 10 µM and less than 1 µM.
For `O=C(O)C1(CN2CC3(Cc4ccc(OCc5c(Cl)cccc5C(F)(F)F)cc4C3)C2)CC1` [Example 47, 1-((5′-((2-chloro-6-(trifluoromethyl)benzyl)oxy)-1′,3′-dihydrospiro[azetidine-3,2′-inden]-1-yl)methyl)cyclopropanecarboxylic acid Compound with 2,2,2-trifluoroacetic acid (1:1)] the same measures were greater than 1 µM, no more than 0.01 µM and less than 1 µM.
With `O=C(O)C1(CN2CC3(Cc4ccc(OCCc5ccccc5F)cc4C3)C2)CC1` [Example 136, 1-((5′-(2-fluorophenethoxy)-1′,3′-dihydrospiro[azetidine-3,2′-inden]-1-yl)methyl)cyclopropanecarboxylic acid], the results for the EC50 (in test [1]; in test [2]; at S1P4) were greater than 1 µM, 1 to 10 µM and less than 1 µM, respectively.
The corresponding values for `O=C(O)C1(CN2CC3(Cc4ccc(OCc5ccccc5F)cc4C3)C2)CC1` [Example 140, 1-((5′-((2-fluorobenzyl)oxy)-1′,3′-dihydrospiro[azetidine-3,2′-inden]-1-yl)methyl)cyclopropanecarboxylic acid] are greater than 1 µM, 1 to 10 µM and greater than 1 µM.
As for `COc1ccc(C#Cc2ccc3c(c2)CC2(C3)CN(C3CC(C(=O)O)C3)C2)c(C)c1` (stereo not drawn) [Example 101, 3-(5′-((4-methoxy-2-methylphenyl)ethynyl)-1′,3′-dihydrospiro[azetidine-3,2′-inden]-1-yl)cyclobutanecarboxylic acid], the EC50 was greater than 1 µM in test [1], 1 to 10 µM in test [2] and less than 1 µM at S1P4.
For `N#Cc1ccc(COc2ccc3c(c2)CC2(C3)CN(CC3(C(=O)O)CC3)C2)cc1` [Example 142, 1-((5′-((4-cyanobenzyl)oxy)-1′,3′-dihydrospiro[azetidine-3,2′-inden]-1-yl)methyl)cyclopropanecarboxylic acid] the same measures were greater than 1 µM, 1 to 10 µM and greater than 1 µM.
As to `O=C(O)C1(CN2CC3(Cc4ccc(OCCc5cccc(F)c5)cc4C3)C2)CC1` [Example 148, 1-((5′-(3-fluorophenethoxy)-1′,3′-dihydrospiro[azetidine-3,2′-inden]-1-yl)methyl)cyclopropanecarboxylic acid], the EC50 is greater than 1 µM in test [1], 1 to 10 µM in test [2] and less than 1 µM on S1P4.
In the case of `CC(C)Oc1ccc(C#Cc2ccc3c(c2)CC2(C3)CN(C3CC(C(=O)O)C3)C2)cc1` (stereo not drawn) [Example 97, 3-(5′-((4-isopropoxyphenyl)ethynyl)-1′,3′-dihydrospiro[azetidine-3,2′-inden]-1-yl)cyclobutanecarboxylic acid], the figures for the EC50 (in test [1]; in test [2]; at S1P4) were less than 1 µM, no more than 0.01 µM and greater than 1 µM, respectively.
For `O=C(O)C1(CN2CC3(Cc4ccc(OCc5c(F)cccc5C(F)(F)F)cc4C3)C2)CC1` [Example 49, 1-((5′-((2-fluoro-6-(trifluoromethyl)benzyl)oxy)-1′,3′-dihydrospiro[azetidine-3,2′-inden]-1-yl)methyl)cyclopropanecarboxylic acid] the same measures were greater than 1 µM, no more than 0.01 µM and less than 1 µM.

For orientation: EC50 means the concentration that produces a half-maximal response.
